We go through 5 compounds from patent US7214495B2, “Screening method” (Takeda Pharmaceutical Company Limited, priority 2002, dated 2007).

The EC50 is the concentration needed to bring the measured effect to its halfway point.

In one experiment the target is T1, human-derived GPR40 (Homo sapiens, UniProt O14842).
T1 construct: The DNA fragment encoding human GPR40 was acquired by the following PCR procedures; expressed in transfected cells; host or cells: CHO-K1 (transient, Lipofectamine)
Briefly: Intracellular calcium change (FLIPR) in CHO-K1 cells transiently expressing GPR40. The class given is cell-based. As to conditions: added in 10^−5 M to 10^−6 M; no response in vector-only control cells. On the procedure: The CHO-K1 cell line was cultured in HAM F-12 medium (Invitrogen) containing 10% fetal calf serum (Invitrogen), unless otherwise indicated. One day before transfection, 4.5×10^5 cells per 10 cm^2 were plated, followed by incubation in a CO2 incubator adjusted to a concentration of 5% CO2 at 37° C. for at least 15 hours. Using Lipofectamine reagent (Invitrogen), transfection procedures were carried out by modifications of the method attached to the reagent. When a 6-well plate was used for the incubator, the following procedures were performed. First, 2 tubes each having a 1.5 ml volume were prepared and 100 μl each of Opti-MEM-I medium (Invitrogen) was dispensed in each tube. Next, 1 μg of the expression vector was charged in one tube and in another tube, 6 μl of Lipofectamine reagent was charged, which were mixed together. The mixture was settled for 20 minutes at room temperature. To the solution, 800 μl of Opti-MEM-I medium was added and the resulting solution mixture for transfection was added to CHO-K1 cells, which had been previously washed with Opti-MEM-I medium. Then, the cells were incubated in a CO2 incubator for 6 hours. After the incubation, the cells were rinsed with PBS (Invitrogen), then scraped using 0.05% trypsin-EDTA solution (Invitrogen) and recovered by centrifugal operation. The cells obtained were counted and diluted to 5×10^4 cells per 200 μl of the medium. The dilution was dispensed onto a Black walled 96-well plate (Costar) in 200 μl each per well, followed by incubation overnight in a CO2 incubator. Various test samples were added to the CHO-K1 cells in which the receptor was transiently expressed by the transfection operation described above, whereby changes in the intracellular calcium ion level were determined using FLIPR (Molecular Device). In order to determine the changes in the intracellular calcium ion level on FLIPR, the cells were pre-treated by the following procedures. First, for the purpose of adding a fluorescent dye Fluo-3 AM (DOJIN) to the cells or washing the cells immediately before the FLIPR assay, an assay buffer was prepared. A solution obtained by adding 20 ml of 1M HEPES (pH 7.4) (DOJIN) to 1000 ml of HBSS (Invitrogen) was prepared (hereinafter HBSS/HEPES solution), to which 10 ml of a solution mixture obtained by dissolving 710 mg of Probenecid (Sigma) in 5 ml of 1N NaOH and further adding 5 ml of HBSS/HEPES solution was added. The resulting solution was used as the assay buffer. Next, 50 μg of Fluo-3AM was dissolved in 21 μl of DMSO (DOJIN) and an equal volume of 20% Pulronic acid (Molecular Probes) was added to and mixed with the solution. The mixture was then added to 10.6 ml of the assay buffer supplemented with 105 μl of fetal calf serum to prepare a fluorescent dye solution. The medium for the transfection-treated CHO-K1 cells was removed. Immediately thereafter, the fluorescent dye solution was dispensed in 100 μl each/well and the cells were incubated in a CO2 incubator for an hour so that the fluorescent dye was taken up into the cells. The cells after the incubation was washed with the assay buffer described above and set on FLIPR. A test sample added to the receptor-expressed CHO-K1 cells was prepared using the assay buffer and set on FLIPR at the same time. After various test samples were added thereto.
Following the pre-treatment above, changes in intracellular calcium level after addition of various test samples were measured on FLIPR.
A general note: Calcium assays in cells follow changes in intracellular calcium, usually with a dye or a luminescent sensor.

A further experiment deals with T2, Mouse GPR40 (Mus musculus, UniProt Q76JU9).
T2 construct: expressed in transfected cells
T2 sequence (Q76JU9 whole entry): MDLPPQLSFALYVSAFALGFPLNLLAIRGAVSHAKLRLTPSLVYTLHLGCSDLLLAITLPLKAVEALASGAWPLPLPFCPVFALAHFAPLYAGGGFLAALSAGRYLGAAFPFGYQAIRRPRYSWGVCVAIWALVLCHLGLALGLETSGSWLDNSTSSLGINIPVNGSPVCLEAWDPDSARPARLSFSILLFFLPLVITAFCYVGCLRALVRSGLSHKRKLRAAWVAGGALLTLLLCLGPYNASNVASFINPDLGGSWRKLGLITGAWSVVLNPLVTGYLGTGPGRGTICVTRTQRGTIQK
In words: EC50 by FLIPR calcium assay in CHO cells stably expressing mouse GPR40. The class given is cell-based. The conditions noted are these: intracellular calcium, FLIPR, stable CHO line; read-out: EC50 Mouse GPR40.

The structures appear in SMILES notation.

T1 sequence (O14842 whole entry, the tested form may be a part): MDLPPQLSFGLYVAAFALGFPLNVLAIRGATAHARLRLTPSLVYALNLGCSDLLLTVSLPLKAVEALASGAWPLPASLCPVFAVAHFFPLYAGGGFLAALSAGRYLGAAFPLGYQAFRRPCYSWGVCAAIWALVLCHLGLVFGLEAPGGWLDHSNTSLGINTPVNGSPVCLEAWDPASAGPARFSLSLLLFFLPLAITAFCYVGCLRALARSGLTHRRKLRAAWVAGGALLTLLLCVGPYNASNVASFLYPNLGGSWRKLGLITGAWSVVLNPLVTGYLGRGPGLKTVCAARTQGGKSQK

As to `CCCCC/C=C\C/C=C\C/C=C\C/C=C\CCCC(=O)O` [Arachidonic acid (C20:4), Arachidonic acid], on human-derived GPR40, the “response (increase in intracellular calcium level) of GPR40-expressing CHO-K1 cells” value was “specifically responsive”. Further, the EC50 at Mouse GPR40 came out at 5.4 ± 0.8 µM.
On the same counts, the results for `CC/C=C\C/C=C\C/C=C\C/C=C\C/C=C\C/C=C\CCC(=O)O` [Docosahexaenoic acid (C22:6), 4Z,7Z,10Z,13Z,16Z,19Z-docosahexaenoic acid] are “specifically responsive” and 16 ± 4.7 µM.
On the same counts, the results for `CCCCC/C=C\C/C=C\CCCCCCCC(=O)O` [Linoleic acid (C18:2), Linoleic acid] are “specifically responsive” and 2.9 ± 0.3 µM.
On the same counts, the results for `CCCCCCCC/C=C\CCCCCCCC(=O)O` [Oleic acid (C18:1), Oleic acid] are “specifically responsive” and 2.7 ± 0.5 µM.
`CCCCC/C=C\C/C=C\C/C=C\CCCCC(=O)O` [γ-Linolenic acid (C18:3), γ-Linolenic acid]: the EC50 at Mouse GPR40 came out at 5.2 ± 0.6 µM.
